Experimental findings from ChEMBL document CHEMBL2439969, “Replacement of Thr32 and Gln34 in the C-terminal neuropeptide Y fragment 25-36 by cis-cyclobutane and cis-cyclopentane β-amino acids shifts selectivity toward the Y(4) receptor” (J Med Chem, 2013) are described below.

The target of assay [1] is T1, Neuropeptide Y receptor type 5 (Homo sapiens, UniProt Q15761).
T1 sequence (Q15761 whole entry): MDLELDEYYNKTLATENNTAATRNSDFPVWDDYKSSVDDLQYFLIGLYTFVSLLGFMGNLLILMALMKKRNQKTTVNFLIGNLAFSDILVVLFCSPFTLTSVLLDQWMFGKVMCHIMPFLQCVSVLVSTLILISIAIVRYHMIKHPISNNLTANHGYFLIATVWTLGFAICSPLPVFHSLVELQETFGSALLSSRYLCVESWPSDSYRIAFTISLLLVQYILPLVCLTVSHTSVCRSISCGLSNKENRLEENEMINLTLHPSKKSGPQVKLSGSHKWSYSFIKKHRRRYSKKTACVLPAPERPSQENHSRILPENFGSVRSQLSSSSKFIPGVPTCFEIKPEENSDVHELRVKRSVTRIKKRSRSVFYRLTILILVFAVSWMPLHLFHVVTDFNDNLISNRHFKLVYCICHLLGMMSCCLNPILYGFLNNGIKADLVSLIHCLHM
The assay is described as follows: Displacement of Cy5-pNPY from human Y5 receptor expressed in human HEC-1B cells after 90 to 120 mins by flow cytometry. It is filed as cell-based. On the technique in general: A flow cytometer gives signals particle by particle.

The target in assay [2] is T2, Neuropeptide Y receptor type 2 (Homo sapiens, UniProt P49146).
T2 sequence (P49146 whole entry): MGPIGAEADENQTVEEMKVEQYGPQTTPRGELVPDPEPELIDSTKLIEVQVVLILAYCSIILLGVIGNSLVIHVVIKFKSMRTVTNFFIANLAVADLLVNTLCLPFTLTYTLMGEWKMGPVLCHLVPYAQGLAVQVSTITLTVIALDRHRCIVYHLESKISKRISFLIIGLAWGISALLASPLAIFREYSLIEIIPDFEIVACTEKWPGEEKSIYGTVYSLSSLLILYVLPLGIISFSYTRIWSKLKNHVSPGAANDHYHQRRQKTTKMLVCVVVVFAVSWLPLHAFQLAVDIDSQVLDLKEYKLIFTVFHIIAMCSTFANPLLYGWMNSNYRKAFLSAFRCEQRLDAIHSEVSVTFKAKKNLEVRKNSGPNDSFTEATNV
Description: Displacement of Cy5-pNPY from human Y2 receptor expressed in CHO cells after 90 to 120 mins by flow cytometry. It is filed as cell-based.

For assay [3], the target named is T3, Neuropeptide Y receptor type 1 (Homo sapiens, UniProt P25929).
T3 sequence (P25929 whole entry): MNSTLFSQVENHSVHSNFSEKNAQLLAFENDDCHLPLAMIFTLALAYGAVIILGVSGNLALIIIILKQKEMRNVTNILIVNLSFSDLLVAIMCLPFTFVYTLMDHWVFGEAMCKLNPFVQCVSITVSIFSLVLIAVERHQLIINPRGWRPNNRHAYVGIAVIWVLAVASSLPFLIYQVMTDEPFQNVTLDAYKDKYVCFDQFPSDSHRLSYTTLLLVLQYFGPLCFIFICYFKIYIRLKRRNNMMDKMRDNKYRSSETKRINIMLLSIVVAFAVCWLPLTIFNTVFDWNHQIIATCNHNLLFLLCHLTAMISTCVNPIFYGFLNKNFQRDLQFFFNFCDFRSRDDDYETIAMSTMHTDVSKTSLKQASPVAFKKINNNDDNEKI
Description: Displacement of Cy5-pNPY from human Y1 receptor expressed in HEL cells after 90 to 120 mins by flow cytometry. The class given is cell-based.

The target in assay [4] is T4, Neuropeptide Y receptor type 4 (Homo sapiens, UniProt P50391). The assay is described as follows: Agonist activity at human Y4 receptor expressed in sf9 cells assessed as hydrolysis of [gamma-33P]GTP after 2 mins by scintillation counting analysis.
Assay [5] addresses T4, Neuropeptide Y receptor type 4. The assay is described as follows: Displacement of Cy5-[K4]hPP from human Y4 receptor expressed in CHO cells after 90 to 120 mins by flow cytometry. It is filed as cell-based.

Residues, ends and D or L forms follow the SMILES beside them.

T4 sequence (P50391 whole entry): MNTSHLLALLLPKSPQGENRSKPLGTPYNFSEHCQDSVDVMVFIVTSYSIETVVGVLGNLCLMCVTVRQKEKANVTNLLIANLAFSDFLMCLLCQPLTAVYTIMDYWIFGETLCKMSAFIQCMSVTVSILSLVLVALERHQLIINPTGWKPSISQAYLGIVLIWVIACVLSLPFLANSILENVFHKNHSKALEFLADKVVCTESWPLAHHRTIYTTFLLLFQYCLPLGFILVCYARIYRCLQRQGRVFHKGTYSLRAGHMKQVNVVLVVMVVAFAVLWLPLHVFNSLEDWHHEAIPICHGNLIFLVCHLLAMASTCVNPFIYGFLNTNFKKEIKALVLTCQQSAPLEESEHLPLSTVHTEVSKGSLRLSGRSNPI

Broadly, the Ki is a dissociation constant, usually derived from enzyme kinetics or from competition with a known ligand. A low value points to tighter binding. As a reminder, the EC50 is the concentration that produces a half-maximal response. Consider `CC[C@H](C)[C@H](NC(=O)[C@H](Cc1ccc(O)cc1)NC(=O)[C@H](Cc1cnc[nH]1)NC(=O)[C@H](CCCNC(=N)N)NC(C)=O)C(=O)N[C@@H](CC(N)=O)C(=O)N[C@@H](CC(C)C)C(=O)N[C@H](C(=O)N[C@H](C(=O)N[C@@H](CCCNC(=N)N)C(=O)N[C@H]1CC[C@H]1C(=O)N[C@@H](CCCNC(=N)N)C(=O)N[C@@H](Cc1ccc(O)cc1)C(N)=O)[C@@H](C)O)[C@@H](C)CC` (HELM PEPTIDE1{[ac].R.H.Y.I.N.L.I.T.R.[O=C([C@@H]1CC[C@@H]1N[*:1])[*:2]].R.Y.[am]}$$$$V2.0), for which the Ki in assay [1] was greater than 1000 nM; in assay [2], greater than 1000 nM; in assay [3] it was greater than 1000 nM; in assay [5], 72 nM. In assay [4], the EC50 came to 122 nM.

Take `CCCC[C@H](NC(=O)[C@H](CC(N)=O)NC(=O)[C@@H](NC(=O)[C@H](Cc1ccc(O)cc1)NC(=O)[C@H](CCCNC(=N)N)NC(=O)[C@H](CCCNC(=N)N)NC(C)=O)[C@@H](C)CC)C(=O)N[C@@H](CC(C)C)C(=O)N[C@H](C(=O)N[C@@H](CCCNC(=N)N)C(=O)N[C@H]1CC[C@H]1C(=O)N[C@@H](CCCNC(=N)N)C(=O)N[C@@H](Cc1ccc(O)cc1)C(N)=O)[C@@H](C)O` (HELM PEPTIDE1{[ac].R.R.Y.I.N.[Nle].L.T.R.[O=C([C@@H]1CC[C@@H]1N[*:1])[*:2]].R.Y.[am]}$$$$V2.0): the Ki was greater than 1000 nM in assay [1], 708 nM in assay [2], greater than 1000 nM in assay [3] and 93 nM in assay [5]. Further, the EC50 in assay [4] turned out to be 284 nM.

`CC(=O)N[C@@H](Cc1ccc(O)cc1)C(=O)N[C@@H](CCCNC(=N)N)C(=O)N[C@H]1CCC[C@H]1C(=O)N[C@@H](CCCN=C(N)N)C(=O)N[C@@H](Cc1ccc(O)cc1)C(N)=O` (HELM PEPTIDE1{[ac].Y.R.[O=C([C@@H]1CCC[C@@H]1N[*:1])[*:2]].R.Y.[am]}$$$$V2.0): the inhibition constant (Ki) in assay [1] is greater than 1000 nM; in assay [2], greater than 1000 nM; in assay [3], greater than 1000 nM; in assay [5], 105 nM. In assay [4], the concentration for a half-maximal effect (EC50) stood at 94 nM.

For the compound Ac-RHYINLITRLRY-NH2, the Ki in assay [1] was greater than 1000 nM; in assay [2], greater than 1000 nM; in assay [3], greater than 1000 nM; in assay [5], 157 nM. The EC50 in assay [4] is 100 nM.

Turning to `CCCC[C@H](NC(=O)[C@H](CC(N)=O)NC(=O)[C@@H](NC(=O)[C@H](Cc1ccc(O)cc1)NC(=O)[C@H](CCCNC(=N)N)NC(=O)[C@H](CCCNC(=N)N)NC(C)=O)[C@@H](C)CC)C(=O)N[C@@H](CC(C)C)C(=O)N[C@H](C(=O)N[C@@H](CCCNC(=N)N)C(=O)N[C@H]1CCC[C@H]1C(=O)N[C@@H](CCCNC(=N)N)C(=O)N[C@@H](Cc1ccc(O)cc1)C(N)=O)[C@@H](C)O` (HELM PEPTIDE1{[ac].R.R.Y.I.N.[Nle].L.T.R.[O=C([C@@H]1CCC[C@@H]1N[*:1])[*:2]].R.Y.[am]}$$$$V2.0), the Ki in assay [1] was greater than 500 nM; in assay [2], 217 nM; in assay [3] it was greater than 1000 nM; in assay [5], 14 nM. In addition, in assay [4], the EC50 stood at 51 nM.

In the case of `CC[C@H](C)[C@H](NC(=O)[C@H](Cc1ccc(O)cc1)NC(=O)[C@H](Cc1cnc[nH]1)NC(=O)[C@H](CCCN=C(N)N)NC(C)=O)C(=O)N[C@@H](CC(N)=O)C(=O)N[C@@H](CC(C)C)C(=O)N[C@H](C(=O)N[C@@H]1C[C@H](C(=O)N[C@@H](CCCN=C(N)N)C(=O)N[C@@H]2C[C@H](C(=O)N[C@@H](CCCNC(=N)N)C(=O)N[C@@H](Cc3ccc(O)cc3)C(N)=O)C2(C)C)C1(C)C)[C@@H](C)CC` (HELM PEPTIDE1{[ac].R.H.Y.I.N.L.I.[CC1(C)[C@@H](C(=O)[*:2])C[C@H]1N[*:1]].R.[CC1(C)[C@@H](C(=O)[*:2])C[C@H]1N[*:1]].R.Y.[am]}$$$$V2.0), the Ki was greater than 1000 nM in assay [1], greater than 1000 nM in assay [2], greater than 1000 nM in assay [3] and 0.53 nM in assay [5]. In assay [4], the EC50 turned out to be 11 nM.

With `CC[C@H](C)[C@H](NC(=O)[C@H](Cc1ccc(O)cc1)NC(=O)[C@H](CCCNC(=N)N)NC(=O)[C@H](CCCNC(=N)N)NC(C)=O)C(=O)N[C@@H](CC(N)=O)C(=O)N[C@@H](CC(N)=O)C(=O)N[C@@H](CC(C)C)C(=O)N[C@H](C(=O)N[C@@H](CCCNC(=N)N)C(=O)N[C@H]1CC[C@H]1C(=O)N[C@@H](CCCNC(=N)N)C(=O)N[C@@H](Cc1ccc(O)cc1)C(N)=O)[C@@H](C)O` (HELM PEPTIDE1{[ac].R.R.Y.I.N.N.L.T.R.[O=C([C@@H]1CC[C@@H]1N[*:1])[*:2]].R.Y.[am]}$$$$V2.0), the Ki in assay [1] was greater than 1000 nM; in assay [2], greater than 1000 nM; in assay [3] it was greater than 1000 nM; in assay [5] it was 70 nM. Moreover, the EC50 in assay [4] came to 76 nM.

On to Ac-TRLRY-NH2, for which the Ki in assay [1] is greater than 1000 nM; in assay [2], greater than 1000 nM; in assay [3], greater than 1000 nM; in assay [5], 490 nM. The EC50 in assay [4] stood at 291 nM.

Turning to `CC(=O)N[C@H](C(=O)N[C@@H](CCCNC(=N)N)C(=O)N[C@H]1CCC[C@H]1C(=O)N[C@@H](CCCNC(=N)N)C(=O)N[C@@H](Cc1ccc(O)cc1)C(N)=O)[C@@H](C)O` (HELM PEPTIDE1{[ac].T.R.[O=C([C@@H]1CCC[C@@H]1N[*:1])[*:2]].R.Y.[am]}$$$$V2.0), the Ki in assay [1] was greater than 1000 nM; in assay [2], greater than 1000 nM; in assay [3], greater than 1000 nM; in assay [5], 509 nM. For the same compound, the EC50 in assay [4] was determined as 451 nM.

Turning to `CC[C@H](C)[C@H](NC(=O)[C@H](Cc1ccc(O)cc1)NC(=O)[C@H](Cc1cnc[nH]1)NC(=O)[C@H](CCCNC(=N)N)NC(C)=O)C(=O)N[C@@H](CC(N)=O)C(=O)N[C@@H](CC(C)C)C(=O)N[C@@H](CCCNC(=N)N)C(=O)N[C@H]1CC[C@H]1C(=O)N[C@@H](CCCNC(=N)N)C(=O)N[C@H]1CC[C@H]1C(=O)N[C@@H](CCCNC(=N)N)C(=O)N[C@@H](Cc1ccc(O)cc1)C(N)=O` (HELM PEPTIDE1{[ac].R.H.Y.I.N.L.R.[O=C([C@@H]1CC[C@@H]1N[*:1])[*:2]].R.[O=C([C@@H]1CC[C@@H]1N[*:1])[*:2]].R.Y.[am]}$$$$V2.0), the Ki was greater than 1000 nM in assay [1], greater than 1000 nM in assay [2], greater than 1000 nM in assay [3] and 35 nM in assay [5]. Further, in assay [4], the EC50 worked out at 66 nM.

For Ac-YRLRY-NH2, the Ki in assay [1], in assay [2] and in assay [3] was greater than 1000 nM throughout.

Regarding `CC[C@H](C)[C@H](NC(=O)[C@H](Cc1ccc(O)cc1)NC(=O)[C@H](Cc1cnc[nH]1)NC(=O)[C@H](CCCN=C(N)N)NC(C)=O)C(=O)N[C@@H](CC(N)=O)C(=O)N[C@@H](CC(C)C)C(=O)N[C@H](C(=O)N[C@H]1CCC[C@H]1C(=O)N[C@@H](CCCN=C(N)N)C(=O)N[C@H]1CCC[C@H]1C(=O)N[C@@H](CCCN=C(N)N)C(=O)N[C@@H](Cc1ccc(O)cc1)C(N)=O)[C@@H](C)CC` (HELM PEPTIDE1{[ac].R.H.Y.I.N.L.I.[O=C([C@@H]1CCC[C@@H]1N[*:1])[*:2]].R.[O=C([C@@H]1CCC[C@@H]1N[*:1])[*:2]].R.Y.[am]}$$$$V2.0), the Ki in assay [1] was greater than 500 nM; in assay [2], greater than 1000 nM; in assay [3], greater than 1000 nM; in assay [5], 37 nM. In addition, the EC50 in assay [4] was found to be 48 nM.

In the case of `CC[C@H](C)[C@H](NC(=O)[C@H](Cc1ccc(O)cc1)NC(=O)[C@H](Cc1cnc[nH]1)NC(=O)[C@H](CCCNC(=N)N)NC(C)=O)C(=O)N[C@@H](CC(N)=O)C(=O)N[C@@H](CC(C)C)C(=O)N[C@H](C(=O)N[C@H](C(=O)N[C@@H](CCCNC(=N)N)C(=O)N[C@H]1C[C@@H](C(=O)N[C@@H](CCCNC(=N)N)C(=O)N[C@@H](Cc2ccc(O)cc2)C(N)=O)C1(C)C)[C@@H](C)O)[C@@H](C)CC` (HELM PEPTIDE1{[ac].R.H.Y.I.N.L.I.T.R.[CC1(C)[C@@H](N[*:1])C[C@H]1C(=O)[*:2]].R.Y.[am]}$$$$V2.0), the Ki in assay [1], in assay [2], in assay [3] and in assay [5] was greater than 1000 nM each time.
